Measurements from patent US9464093B2, “Substituted imidazo[4',5':4,5]cyclopenta[1,2-e]pyrrolo[1,2-a]pyrazines and oxazolo[4',5':4,5]cyclopenta[1,2-e]pyrrolo[1,2-a]pyrazines for treating brain cancer” (Mayo Foundation for Medical Education and Research, priority 2012, dated 2016).
“Also recorded” adds a separate entry of the source.

Experiments:
[1] = system: osteopontin; assay: Osteopontin secretion ELISA in Raji cells; type: cell-based, human; conditions: culture medium, four days
Method: 10^5 Raji lymphoma cells were seeded in 5 ml media in 6-well plates in triplicate and were grown for four days. Cells were pelleted and the media was collected for analysis. Duplicate four hundred microliters of media supernatant were assayed for osteopontin by ELISA using Quantikine human osteopontin ELISA kit (R&D Systems, Inc., Minneapolis, Minn.). Statistical analysis was performed using two-tailed Student's T-Test.

[2] = system: osteopontin mRNA; assay: Osteopontin mRNA real-time PCR; type: cell-based; conditions: at 12 h; normalized to GAPDH
Method: B lymphoma cells were grown at 1×10^6 cells in complete media. Cells were harvested by centrifugation, and total RNA was extracted by Trizol and PureLink kit as described by the manufacturer (Invitrogen: Carlsbad, Calif.). Residual genomic DNA contamination was removed by DNA-Free kit (Applied Biosystems: Carlsbad, Calif.). Total RNA was converted to cDNA using the High Capacity Reverse Transciption kit (Applied Biosystems: Carlsbad, Calif.) and diluted to 4 ng/μl RNA with nuclease-free water.
Ct values were determined by instrument software and relative osteopontin mRNA values were normalized to GAPDH. Significant difference of Ct values was determined using a two-tailed Student's T-test.

[3] = system: NFkB signaling; assay: NFkB reporter assay in Raji cells; type: cell-based; conditions: 100 nM and 500 nM for 48 hours
From the text: 10^5 Raji cells were co-transfected overnight with a Cignal firefly luciferase-expressing NFkB reporter plasmid (NFkBr; SA Biosciences) together with a constitutively expressed Renilla luciferase reporter plasmid containing a CMV promoter. A promoterless vector (Neg-Luc) was co-transfected with the Renilla reporter for control. […] Data are presented as a ratio of firefly-to-Renilla luciferase luminescence.

[4] = system: T47D; assay: Cell proliferation assay T47D (Example 6); type: cell-based; conditions: cells counted on the sixth day
Method: (§1) In-vitro assays were performed to assess the cytotoxic impact of AA analogues on breast cancer cell lines (MB-468, MB-453, and T47D), lymphoma cell lines (Raji and OCI-LY10), and glioblastoma multiforme cell line (U87). The three breast cancer cell lines represent three subtypes of breast cancer: triple-negative (MB-468), Her2-positive (MB-453), and hormone receptor positive (T47D).
(§2) The IC50 values obtained for each compound represents the concentration of the tested compound that is needed to decrease the cancer cell count by 50%. Cancer cells were seeded in triplicate at 50,000 cells per well of a 24-well plate in 0.5 ml medium. […] Cells were harvested and counted on the sixth day using a Beckman Coulter counter.

[5] = system: U87; assay: Cell proliferation assay U87 (Example 6); type: cell-based; conditions: cells counted on the sixth day
Method: as §1, §2

[6] = system: Raji; assay: Cell proliferation assay Raji (Example 6); type: cell-based; conditions: cells counted on the sixth day
Method: as §1, §2

[7] = system: OCI-LY10; assay: Cell proliferation assay OCI-LY10 (Example 6); type: cell-based; conditions: cells counted on the sixth day
Method: as §1, §2

[8] = system: OCI-LY10 B lymphoma cells; assay: OCI-LY10 orthotopic murine CNS lymphoma model; type: in vivo; conditions: for Median Survival (Day) CNS Lymphoma (OCI-LY10): control 35; for survival (Kaplan-Meier) vs control, OCI-LY10 model / tumor growth (BLI) vs control, OCI-LY10 model: all treatment groups (2.5 or 5 mg/kg i.p. daily for 4 days); for tolerability, OCI-LY10 model: both dose levels (2.5 and 5 mg/kg)
Method: (§3) Female athymic mice (8-10 weeks old and weighing 20-25 g at the beginning of the study) were purchased from Harlan laboratories (Indianapolis, Ind.). They were housed in a temperature-controlled sterilized room (23±2° C.) with a 12-h light/dark cycle and free access to food and water throughout the study.
(§4) Murine brain tumor models were created by intracerebral injection of luciferase-transfected cancer cells in athymic mice under anesthesia using a stereotactic platform. For murine model for CNS lymphoma, 1×10^5 OCI-LY10 B lymphoma cells were used. For murine model for metastatic breast cancer of the brain (MBCB), 1×10^5 MB-468 triple-negative breast cancer cells were used. For murine model for glioblastoma multiforme (GBM), 1.75×10^5 U87 cells were used. Eight-week-old athymic mice underwent a minimum 7-day acclimation/quarantine prior to surgery. Surgery was performed in a laminar flow hood under sterile conditions. Tylenol 300 mg/kg PO was given for analgesia 48 hours before the surgery and continuing 48 hours postoperatively. Anesthesia was achieved by inhalation of 1-2% isoflurane. After the mouse became well anesthetized, it was placed in the Kopf stereotactic instrument. A small amount of BNP antibiotic cream (a mixture of Bacitracin, Neomycin and Polymyxin) was smeared on its eyes to prevent infection and corneal damage during surgery. A strip of soft fabric was placed over the mouse's body and tail to prevent excessive heat loss during surgery. The scalp area was cleaned with a 2% solution of Betadine and dried with cotton tipped applicator. A midline sagittal incision was made in the scalp. A small burr hole was drilled in the left skull with a surgical drill (Kopf) or a Dremel drill according to the coordinates (AP: 0.5 mm, LM: 2.5 mm) as determined by reference to the mouse brain atlas by Franklin and Paxinos. The dura mater was surgically exposed, and a 10 μl Hamilton syringe with a 26S-gauge beveled needle was lowered into the left cerebral hemisphere up to a depth of 3 mm and 5 μl of tumor cells were slowly infused (0.5 μl/min). The needle was left in place for 5 minutes to prevent reflux and then was slowly removed. The skin was closed with wound clips. The mice recovered from anesthesia and surgery in a warm environment and were not returned to their cages until motor activity returned. Cages were placed on top of a heating pad to minimize the loss of body heat during the recovery. The mice were monitored post-operatively at least twice a day for 5 days or until recovery was complete.
(§5) BLI was used to assess the impact of the treatments on the brain tumor growth. After intracerebral injection of cancer cells, all the mice were subjected to bioluminesence imaging (BLI) twice a week starting at day-4 post-intracerebral injection to monitor the real-time in vivo tumor growth. BLI was conducted using a Xenogen Lumina optical imaging system (Caliper Life Sciences, Hopkinton, Mass.). Mice were anesthetized with isofluorane before intraperitoneal injections of luciferin at a dose of 150 mg/kg, providing a saturating substrate concentration for luciferase enzyme. Peak luminescent signals were recorded 10 minutes after luciferin injection. Regions of interest encompassing the intracranial area of signal were defined using Living Image software (Xenogen, Alameda, Calif.), and the total photons/s/steradian/cm2 was recorded.
(§6) Five mice each were assigned to one of seven treatment groups or one vehicle control group for all three brain tumor models. Mice in experimental groups received either 2.5 mg/kg or 5 mg/kg of AA, CEAA, or DCEAA by intraperitoneal route daily for 4 days. For CAA, only 2.5 mg/Kg by intraperitoneal route daily for 4 days was used. The control group received DMSO by intraperitoneal route for 4 days. The end point for the survival analysis was the development of limb paralysis. Animals were checked at least twice per day. Animals that reached the end point were sacrificed by CO2 anesthesia. […]

[9] = system: MB-468 triple-negative breast cancer cells; assay: MB-468 orthotopic murine model for metastatic breast cancer of the brain; type: in vivo, athymic mice; conditions: for Median Survival (Day) Breast Cancer (MB-468): control 52; for survival (Kaplan-Meier) vs control, MB-468 model / tumor growth (BLI) vs control, MB-468 model: all treatment groups (2.5 or 5 mg/kg i.p. daily for 4 days); for tolerability, MB-468 model: both dose levels (2.5 and 5 mg/kg)
Method: as §3, §4, §5, §6

[10] = 2.5 mg/kg intraperitoneal daily for 4 days
[11] = 5 mg/kg intraperitoneal daily for 4 days

Row | Compound | Median Survival (Day) CNS Lymphoma (OCI-LY10) [8, 10] | Median Survival (Day) CNS Lymphoma (OCI-LY10) [8, 11] | survival (Kaplan-Meier) vs control, OCI-LY10 model [8] | tumor growth (BLI) vs control, OCI-LY10 model [8] | Median Survival (Day) Breast Cancer (MB-468) [9, 10] | Median Survival (Day) Breast Cancer (MB-468) [9, 11] | survival (Kaplan-Meier) vs control, MB-468 model [9] | tumor growth (BLI) vs control, MB-468 model [9] | IC50 ([4]; Homo sapiens, T47D) | IC50 ([5]; Homo sapiens, U-87 MG) | IC50 ([6]; Homo sapiens, Raji) | IC50 ([7]; Homo sapiens, OCI-Ly10) | tolerability, OCI-LY10 model [8] | tolerability, MB-468 model [9] | also measured
1 | CN1C(=O)N[C@H]2[C@@H]3NC(=O)c4ccc(Br)n4[C@@H]3C[C@]21O [AA, agelastatin A, reference compound] | 48.5 days | 46 days | significantly prolonged survival; also recorded: prolongation of survival | significantly decreased tumor growth; also recorded: significantly slower | 57 days | 60.5 days | significantly prolonged survival; also recorded: prolongation of survival | significantly decreased tumor growth; also recorded: significantly slower | – | – | – | – | – | – | OPN secretion by Raji cells (ELISA) [1]: significantly decreased secretion of osteopontin; also recorded: decreases OPN secretion; expression of OPN messenger RNA (PCR) [2]: transcriptionally downregulating osteopontin; also recorded: decreases the expression of OPN messenger RNA; NFkB signaling in Raji cells (reporter assay) [3]: significantly downregulated NFkB signaling; also recorded: attenuates the NFkB signaling; IC50 [4]: 55.1 nM; IC50 [5]: 2800 nM; IC50 [6]: 137 nM; IC50 [7]: 162 nM; weight loss, OCI-LY10 model ([8]; 5 mg/kg dose level): Some weight loss; weight loss, MB-468 model ([9]; 5 mg/kg dose level): Some weight loss
2 | CN1C(=O)N[C@H]2[C@@H]3NC(=O)c4ccc(Cl)n4[C@@H]3C[C@]21O [CAA, chloroagelastatin A] | 49 days | – | significantly prolonged survival; also recorded: prolongation of survival | significantly decreased tumor growth; also recorded: significantly slower | 75 days | – | significantly prolonged survival | significantly decreased tumor growth | 29.8 nM | 96.6 nM | 181 nM | 102 nM | – | – | weight loss, OCI-LY10 model ([8]; 2.5 mg/kg): Some weight loss; weight loss, MB-468 model ([9]; 2.5 mg/kg): Some weight loss
3 | CCN1C(=O)N[C@H]2[C@@H]3NC(=O)c4ccc(Cl)n4[C@@H]3C[C@]21O [CEAA, chloroethylagelastatin A] | 57 days | 65 days | significantly prolonged survival; also recorded: prolongation of survival | significantly decreased tumor growth; also recorded: significantly slower | 56 days | 64 days | significantly prolonged survival; also recorded: prolongation of survival | significantly decreased tumor growth; also recorded: significantly slower | 20.7 nM | 109 nM | 296 nM | 119 nM | well tolerated | well tolerated | –
4 | CCN1C(=O)N[C@H]2[C@@H]3NC(=O)c4cc(Cl)c(Cl)n4[C@@H]3C[C@]21O [DCEAA, dichloroethylagelastatin A] | 60 days | 69 days | significantly prolonged survival; also recorded: prolongation of survival | significantly decreased tumor growth; also recorded: significantly slower | 61 days | 75 days | significantly prolonged survival; also recorded: prolongation of survival | significantly decreased tumor growth; also recorded: significantly slower | 101 nM | 256 nM | 619 nM | 429 nM | well tolerated | well tolerated | –
